Patent publication US6335372B1, “Treatment of obsessive compulsive disorder” (Orion Corporation, priority 2000, dated 2002)

System: obsessive-compulsive symptoms
Experiment: Treatment of two patients having obsessive-compulsive symptoms with deramciclane
Assay type: in vivo
Details: one 15 mg tablet twice daily (30 mg/day), 8 week treatment period
Experimental: The efficacy of deramciclane in the treatment of OCD, is illustrated with two patients having obsessive-compulsive symptoms. These patients received one 15 mg tablet of deramciclane twice daily (=30 mg/day) for an eight-week active treatment period.

SMILES: CN(C)CCO[C@]1(c2ccccc2)C[C@H]2CC[C@]1(C)C2(C)C [deramciclane, (1R,2S,4R)-(−)-2-phenyl 2-(dimethylaminoethoxy)-1,7,7-trimethyl-bicyclo[2.2.1]heptane]
- obsessive-compulsive symptoms as assessed by the responsible physician: reduced in a clinically significant way
